Data: patent US10363229B2, “Methods and compositions for the treatment of cancer” (priority 2009, dated 2019)

Assays:
[1] = system: M3 Cloudman melanoma cells; test: Live cell video microscopy of melanoma cells (morphology, contact inhibition); assay type: cell-based, mouse; conditions: equimolar concentration substituted for 2% methyl sulfone
Protocol: (§1) Cloudman S-91 mouse melanoma cells (sub-clone M-3, CCL 53.1; American Type Culture Collection, Rockville, Md.) were grown in RMPI medium supplemented with 10% fetal bovine serum (Invitrogen, Inc) and 5% penicillin-streptomycin (Invitrogen, Inc). Mouse breast cancer cells (66Cl-1; American Type Culture Collection, Rockville, Md.) that are estrogen-receptor negative were grown in DMEM medium supplemented with 10% fetal bovine serum (Invitrogen, Inc) and 5% penicillin/streptomycin (Invitrogen, Inc). Human T-cell leukemic lymphocytes (CEM; American Type Culture Collection, Rockville, Md.) were grown in MEM medium supplemented with 7% fetal calf serum. Cultures were passaged twice a week.
Cells were plated on 35 mm tissue culture dishes at concentration of 10^5 cells/plate, unless stated otherwise, and incubated at 37° C., 5% CO2. After 24 hours, methyl sulfone (0-10% in medium) was added to appropriate plates and immediately videotaped with a Nikon TE300 inverted microscope equipped with a 10×0.25 NA Plan Achromat objective lens. Control cells (no drug) were videotaped as described above. Time series (10 min) of phase contrast images were acquired at a video rate of 1 frame/5 s with a Watec-902B CCD video camera (Watec Corp., Japan) via the stream acquisition option of Metamorph image acquisition and analysis software (Universal Imaging Corp., Downington, Pa.). During recordings, cells were kept at 37° C. with 10 mM Hepes, pH 7.4. Time series of cells +/−2% methyl sulfone were obtained every 24-48 hours for up to 6 weeks.
(§2) M3 Cloudman melanoma cells were plated into culture dishes containing RPMI medium. After 24 hour media was changed to control medium (no drug) or to media containing different concentrations of methyl sulfone (1-10% methyl sulfone in RPMI medium). Cells were examined by live cell video microscopy immediately after adding drug and every 24 hours up to 144 hours.
The possibility that the data generated from treating cells with methyl sulfone was a nonspecific effect due to changes in extracellular osmolarity was considered. To test this possibility an equimolar concentration of urea was substituted for 2% methyl sulfone; urea has a chemical structure and dipolar moment that is similar to methyl sulfone. […] We next replaced 2% methyl sulfone with an equimolar concentration of dimethyl sulfoxide (DMSO).

[2] = system: Cloudman S-91 mouse melanoma cells (sub-clone M-3); test: Annexin V-FITC/propidium iodide apoptosis assay in melanoma cells; assay type: cell-based
Protocol: as §1
Early and late apoptosis was assessed with the Annexin V-FITC Apoptosis Detection Kit from PharMingen (Becton-Dickinson, San Diego, Calif.). Images were obtained at the Center for Cell Analysis and Modeling, University of Connecticut Health Center, Farmington, Conn., with an Axioplan CCD Microscope equipped with a 40×1.3 NA FL objective lens and Photometrics PXL-EEV37 high speed digital cooled CCD camera via Metamorph image acquisition and analysis software (Universal Imaging Corp., Downington, Pa.).
as §2
Briefly, melanoma cells (Cloudman M3 cell line) were plated at 10^5 cells/ml in RPMI medium. After 24 hours, medium was replaced with RPMI containing different concentrations (grams/volume) of MMS, MES and EES. After 24 hours, apoptosis was assayed using the Becton-Dickinson Annexin V-FITC/Propidium Iodide Kit and a Nikon fluorescent microscope as described by the manufacturer.

[3] = system: microtubules in melanoma cells; test: Immunofluorescence of microtubules, incl. vinblastine stability test; assay type: cell-based, mouse; conditions: 10^−7 M vinblastine, no methyl sulfone
Protocol: Cells were plated in 6-100 mm tissue culture plates, each containing 1 polylysine-coated 10-well slide, or plated onto polylysine-coated coverslips. Once cells were approximately 50% confluent, 2% methyl sulfone was added to cells for 10, 30, 60, 90, and 120 minutes. At each time point cells were placed in microtubule stabilizing buffer ( ) for 10 minutes followed by incubation in −20° C. methanol for 5 minutes. Cells were washed twice in 0.1% Triton X-100 in PBS at room temperature, then incubated with mouse monoclonal anti-alpha-tubulin antibody (Santa Cruz Biotech, Calif.; diluted 1/200 in 1% BSA/PBS) for 1.5 hours. Cells were washed 5 times in 0.1% Triton X-100/PBS, 3 minutes each. Cells were incubated with secondary antibody (Alexa Fluor 568 rabbit anti-mouse antibody; diluted 1/100 in 1%/PBS) for 30 minutes in the dark. Cells were washed five times in 0.1% Triton X-100/PBS, three minutes each. Cells were washed two times in PBS at 2 minute intervals and incubated with DAPI (1 μg/ml in PBS) for 5 minutes at room temperature and in the dark. Cells were washed in PBS for one minute. SlowFade was added to glass slides, coverslips were placed cell side down and sealed with nail polish. Microtubules were viewed at the Center for Cell Analysis and Modeling, University of Connecticut Health Center, Farmington, Conn., with an Axioplan CCD Microscope equipped with a 40×1.3 NA FL objective lens and Photometrics PXL-EEV37 high speed digital cooled CCD camera via Metamorph image acquisition and analysis software (Universal Imaging Corp., Downington, Pa.).
One assay to test stability of microtubules is to give cells increasing concentrations of a microtubule-disassembly drug and use immunofluorescence microscopy to assess microtubule lengths (Caron et al). A higher concentration of drug will be required to disassemble the more stabilized microtubules. We used different concentrations of the anti-microtubule drug, vinblastine, to assess microtubule stability in control cells and cells incubated with 2% methyl sulfone.

[4] = system: CEM cells, leukemic T-cell lymphocytes; test: Apoptosis of leukemic lymphocytes, FITC-annexinV/propidium iodide microscopy; assay type: cell-based, human; conditions: 10^−7 M VNB, 20 hours
Protocol: as §1
CEM cells, leukemic T-cell lymphocytes obtained from a child with acute lymphocytic leukemia, were maintained in Petri dishes in MEM (minimal essential medium) with 7% fetal calf serum in a 5% CO2 incubator at 37° C. For experiments, methyl sulfone was added to the medium at concentrations from 0-6.0%. In control cells, no methyl sulfone was added. Cells (2×10^6 per ml) were incubated for 20 hrs in the presence or absence of methyl sulfone, and then assayed for apoptosis using FITC-annexinV/propidium iodide microscopy. Methyl sulfone was also compared to the anti-microtubule drug, vinblastine. Vinblastine (VNB) and its derivative, vincristine, are standard treatments for acute lymphocytic leukemia, as well as other cancers. We used the concentration of VNB that is found in the blood of subjects being treated with this drug (10^−7 M) (6,7).

Compound | effect on melanoma cells of osmolarity control substance [1] | window of concentrations between killing cancer cells and harming normal cells [2] | also measured
C[S+](C)[O-] [DMSO, dimethyl sulfoxide, reference compound] | had no effect |  | 
CCS(=O)(=O)CC [EES, ethyl ethyl sulfone, reference compound] |  | narrow differential | 
CCS(C)(=O)=O [MES, methyl ethyl sulfone, reference compound] |  | narrow differential | 
NC(N)=O [urea, reference compound] | induced necrotic death |  | 
CC[C@]1(O)C[C@@H]2CN(CCc3c([nH]c4ccccc34)[C@@](C(=O)OC)(c3cc4c(cc3OC)N(C)[C@H]3[C@@](O)(C(=O)OC)[C@H](OC(C)=O)[C@]5(CC)C=CCN6CC[C@]43[C@@H]65)C2)C1 [vinblastine, reference compound] |  |  | microtubules in control cells [3]: largely gone; apoptotic leukemic cells [4]: 48%
